Test results from US20230257372A1 (CHONG KUN DANG PHARMACEUTICAL CORP., priority 2020, published 2023).
Like-named read-outs stand apart in the source and are kept apart here.

What was measured:
human recombinant HDAC1 = biological target: T1, human recombinant HDAC1 (Homo sapiens, UniProt Q13547); assay: HDAC1 enzyme activity inhibition (HDAC Fluorimetric Drug Discovery Kit); type: biochemical; conditions: read-out: HDAC1
T1 construct: purchased Enzo Life Science, Inc. BML-SE456
In short: (§1)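 Enzyme at 0.3 µg per well was reacted with 10 μM fluorogenic substrate in presence of 5-fold diluted compound, 30° C for 60 min.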

human recombinant HDAC6 = biological target: T2, human recombinant HDAC6 (Homo sapiens, UniProt Q9UBN7); assay: HDAC6 enzyme activity inhibition (HDAC Fluorimetric Drug Discovery Kit); type: biochemical
T2 construct: purchased Calbiochem Inc. 382180
T2 sequence (Q9UBN7 1-1215): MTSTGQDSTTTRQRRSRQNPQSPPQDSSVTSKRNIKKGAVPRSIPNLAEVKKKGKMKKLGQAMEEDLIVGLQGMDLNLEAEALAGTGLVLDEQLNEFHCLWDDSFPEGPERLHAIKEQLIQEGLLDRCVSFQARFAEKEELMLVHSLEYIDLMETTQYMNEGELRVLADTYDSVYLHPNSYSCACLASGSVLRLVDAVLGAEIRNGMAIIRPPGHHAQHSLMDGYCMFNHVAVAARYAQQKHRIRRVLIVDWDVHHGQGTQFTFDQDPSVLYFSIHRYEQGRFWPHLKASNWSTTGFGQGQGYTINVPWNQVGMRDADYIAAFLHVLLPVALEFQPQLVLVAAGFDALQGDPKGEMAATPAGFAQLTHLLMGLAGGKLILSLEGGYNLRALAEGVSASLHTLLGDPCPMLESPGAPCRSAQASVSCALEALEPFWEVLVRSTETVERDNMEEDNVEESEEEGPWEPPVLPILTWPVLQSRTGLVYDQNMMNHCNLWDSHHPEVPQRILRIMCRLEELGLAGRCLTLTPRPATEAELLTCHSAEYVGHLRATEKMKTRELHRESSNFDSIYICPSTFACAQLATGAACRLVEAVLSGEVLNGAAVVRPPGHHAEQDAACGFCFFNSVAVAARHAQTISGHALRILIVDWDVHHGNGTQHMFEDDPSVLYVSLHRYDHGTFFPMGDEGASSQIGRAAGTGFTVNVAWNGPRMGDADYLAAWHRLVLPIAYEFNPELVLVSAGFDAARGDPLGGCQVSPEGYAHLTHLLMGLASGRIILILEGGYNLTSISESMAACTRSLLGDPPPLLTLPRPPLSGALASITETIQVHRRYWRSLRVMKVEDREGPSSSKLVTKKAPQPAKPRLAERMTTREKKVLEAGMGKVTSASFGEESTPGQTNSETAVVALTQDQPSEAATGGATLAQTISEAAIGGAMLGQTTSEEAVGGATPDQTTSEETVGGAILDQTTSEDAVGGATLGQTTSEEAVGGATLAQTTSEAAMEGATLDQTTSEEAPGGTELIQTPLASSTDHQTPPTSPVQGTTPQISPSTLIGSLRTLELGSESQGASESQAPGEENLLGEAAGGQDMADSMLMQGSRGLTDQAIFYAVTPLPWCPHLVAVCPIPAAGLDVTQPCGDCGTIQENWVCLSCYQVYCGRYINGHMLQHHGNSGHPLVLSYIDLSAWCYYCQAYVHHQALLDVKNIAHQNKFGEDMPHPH
In short: as §1

[1] = human recombinant HDAC1, Fluor de Lys substrate, 30° C. 60 minutes
[2] = human recombinant HDAC6, same protocol as HDAC1
[3] = human recombinant HDAC1, IC50 calculated with GraphPad Prism
[4] = human recombinant HDAC6, IC50 calculated with GraphPad Prism

T1 sequence (Q13547 whole entry): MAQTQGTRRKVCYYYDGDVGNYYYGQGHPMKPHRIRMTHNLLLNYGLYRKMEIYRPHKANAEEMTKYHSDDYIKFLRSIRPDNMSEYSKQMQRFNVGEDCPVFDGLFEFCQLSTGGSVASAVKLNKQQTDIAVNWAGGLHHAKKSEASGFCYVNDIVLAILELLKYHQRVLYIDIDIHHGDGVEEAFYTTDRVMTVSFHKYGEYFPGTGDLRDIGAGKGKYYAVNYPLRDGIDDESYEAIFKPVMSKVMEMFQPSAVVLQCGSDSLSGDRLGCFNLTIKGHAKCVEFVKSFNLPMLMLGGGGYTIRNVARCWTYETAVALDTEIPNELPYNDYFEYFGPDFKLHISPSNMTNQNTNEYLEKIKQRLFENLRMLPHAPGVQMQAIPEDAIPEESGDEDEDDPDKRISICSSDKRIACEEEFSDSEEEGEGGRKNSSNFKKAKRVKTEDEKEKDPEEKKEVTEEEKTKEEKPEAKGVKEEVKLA

Row | Compound | IC50 (human recombinant HDAC1; [1]) [nM] | HDAC6 selectivity (fold) (human recombinant HDAC6; HDAC6 over HDAC1) | IC50 (human recombinant HDAC6; [2]) [nM] | IC50 (human recombinant HDAC1; [3]) [nM] | HDAC6 selectivity (fold) (human recombinant HDAC6; HDAC1 IC50 / HDAC6 IC50) | IC50 (human recombinant HDAC6; [4]) [nM]
1 | Fc1cc(-c2nnc(C(F)F)o2)ccc1Cn1cc(-c2ccnc(N3CCN(C4CCC4)CC3)c2)nn1 [Compound 4640, 2-(4-((4-(2-(4-cyclobutylpiperazin-1-yl)pyridin-4-yl)-1H-1,2,3-triazol-1-yl)methyl)-3-fluorophenyl)-5-(difluoromethyl)-1,3,4-oxadiazole] | > 50000 | 807 | 61.9 | – | – | –
2 | CCN1CCc2ccc(-c3cn(Cc4ccc(-c5nnc(C(F)F)o5)cn4)nn3)cc2C1 [Compound 4211, 2-(difluoromethyl)-5-(6-((4-(2-ethyl-1,2,3,4-tetrahydroisoquinolin-7-yl)-1H-1,2,3-triazol-1-yl)methyl)pyridin-3-yl)-1,3,4-oxadiazole] | – | – | – | > 50000 | 1039 | 48.1
3 | CNCc1cccc(-c2cn(Cc3ccc(-c4nnc(C(F)F)o4)cn3)nn2)c1 [Compound 3919, 1-(3-(1-((5-(5-(difluoromethyl)-1,3,4-oxadiazol-2-yl)pyridin-2-yl)methyl)-1H-1,2,3-triazol-4-yl)phenyl)-N-methylmethanamine] | – | – | – | > 50000 | 1358 | 36.8
4 | OCc1c(-c2ccccc2)nnn1Cc1ccc(-c2nnc(C(F)F)o2)cc1F [Compound 4479, (1-(4-(5-(difluoromethyl)-1,3,4-oxadiazol-2-yl)-2-fluorobenzyl)-4-phenyl-1H-1,2,3-triazol-5-yl)methanol] | – | – | – | > 50000 | 103 | 483
5 | FC(F)c1nnc(-c2ccc(Cn3cc(-c4cccc(NC5CCCCC5)c4)nn3)cc2)o1 [Compound 4324, N-cyclohexyl-3-(1-(4-(5-(difluoromethyl)-1,3,4-oxadiazol-2-yl)benzyl)-1H-1,2,3-triazol-4-yl)aniline] | – | – | – | > 50000 | 170 | 294
6 | Fc1cc(-c2nnc(C(F)F)o2)ccc1Cn1cc(-c2cccc(N3CCN(C4COC4)CC3)c2F)nn1 [Compound 4580] | > 50000 | 1908 | 26.2 | – | – | –
7 | Fc1cc(-c2nnc(C(F)F)o2)ccc1Cn1cc(-c2cccc(N3CCN(C4CCC4)CC3)n2)nn1 [Compound 17364, 2-(4-((4-(6-(4-cyclobutylpiperazin-1-yl)pyridin-2-yl)-1H-1,2,3-triazol-1-yl)methyl)-3-fluorophenyl)-5-(difluoromethyl)-1,3,4-oxadiazole] | > 50000 | 976 | 51.2 | – | – | –
8 | CN1Cc2ccc(-c3cn(Cc4ccc(-c5nnc(C(F)F)o5)cc4)nn3)cc2C1 [Compound 4513, 2-(difluoromethyl)-5-(4-((4-(2-methylisoindolin-5-yl)-1H-1,2,3-triazol-1-yl)methyl)phenyl)-1,3,4-oxadiazole] | > 50000 | 495 | 101 | – | – | –
9 | CC(C)(C)OC(=O)N1CCC(c2cccc(-c3cn(Cc4ccc(-c5nnc(C(F)F)o5)cn4)nn3)c2)CC1 [Compound 4001, tert-butyl 4-(3-(1-((5-(5-(difluoromethyl)-1,3,4-oxadiazol-2-yl)pyridin-2-yl)methyl)-1H-1,2,3-triazol-4-yl)phenyl)piperidin-1-carboxylate] | – | – | – | > 50000 | 296 | 169
10 | CCN1CCN(c2cc(-c3cn(Cc4ccc(-c5nnc(C(F)F)o5)cc4F)nn3)ccn2)CC1 [Compound 4634, 2-(difluoromethyl)-5-(4-((4-(2-(4-ethylpiperazin-1-yl)pyridin-4-yl)-1H-1,2,3-triazol-1-yl)methyl)-3-fluorophenyl)-1,3,4-oxadiazole] | > 50000 | 2074 | 24.1 | – | – | –
11 | Fc1cc(-c2nnc(C(F)F)o2)ccc1Cn1cc(-c2ccc3c(c2)CN(C2CCOCC2)C3)nn1 [Compound 17458, 2-(difluoromethyl)-5-(3-fluoro-4-((4-(2-(tetrahydro-2H-pyran-4-yl)isoindolin-5-yl)-1H-1,2,3-triazol-1-yl)methyl)phenyl)-1,3,4-oxadiazole] | > 50000 | 619 | 80.7 | – | – | –
12 | OCCCc1cn(Cc2ccc(-c3nnc(C(F)F)o3)cn2)nn1 [Compound 3833, 3-(1-((5-(5-(difluoromethyl)-1,3,4-oxadiazol-2-yl)pyridin-2-yl)methyl)-1H-1,2,3-triazol-4-yl)propan-1-ol] | – | – | – | > 50000 | 117 | 424
13 | CN1Cc2ccc(-c3cn(Cc4ccc(-c5nnc(C(F)F)o5)cc4F)nn3)cc2C1 [Compound 4515, 2-(difluoromethyl)-5-(3-fluoro-4-((4-(2-methylisoindolin-5-yl)-1H-1,2,3-triazol-1-yl)methyl)phenyl)-1,3,4-oxadiazole] | > 50000 | 900 | 55.5 | – | – | –
14 | Fc1cc(-c2nnc(C(F)F)o2)ccc1Cn1cc(-c2cccc(N3CCN(C4CCC4)CC3)c2)nn1 [Compound 4376, 2-(4-((4-(3-(4-cyclobutylpiperazin-1-yl)phenyl)-1H-1,2,3-triazol-1-yl)methyl)-3-fluorophenyl)-5-(difluoromethyl)-1,3,4-oxadiazole] | – | – | – | > 50000 | 1094 | 45.7
15 | Fc1cc(-c2nnc(C(F)F)o2)ccc1Cn1cc(-c2ccc(CN3CC[C@H](F)C3)nc2)nn1 [Compound 17773, (S)-2-(difluoromethyl)-5-(3-fluoro-4-((4-(6-((3-fluoropyrrolidin-1-yl)methyl)pyridin-3-yl)-1H-1,2,3-triazol-1-yl)methyl)phenyl)-1,3,4-oxadiazole] | > 50000 | 769 | 65 | – | – | –
16 | CC(C)N1CCC(c2cn(Cc3ccc(-c4nnc(C(F)F)o4)cn3)nn2)CC1 [Compound 3808, 2-(difluoromethyl)-5-(6-((4-(1-isopropylpiperidin-4-yl)-1H-1,2,3-triazol-1-yl)methyl)pyridin-3-yl)-1,3,4-oxadiazole] | – | – | – | > 50000 | 143 | 348
17 | CC(C)N1CCN(c2ccc(F)c(-c3cn(Cc4ccc(-c5nnc(C(F)F)o5)cc4)nn3)c2)CC1 [Compound 4453, 2-(difluoromethyl)-5-(4-((4-(2-fluoro-5-(4-isopropylpiperazin-1-yl)phenyl)-1H-1,2,3-triazol-1-yl)methyl)phenyl)-1,3,4-oxadiazole] | – | – | – | > 50000 | 3144 | 15.9
18 | CN(C)Cc1ccc(-c2cn(Cc3ncc(-c4nnc(C(F)F)o4)cc3F)nn2)cc1Cl [Compound 19094, 1-(2-chloro-4-(1-((5-(5-(difluoromethyl)-1,3,4-oxadiazol-2-yl)-3-fluoropyridin-2-yl)methyl)-1H-1,2,3-triazol-4-yl)phenyl)-N,N-dimethylmethanamine] | > 50000 | 510 | 98 | – | – | –
19 | FC(F)c1nnc(-c2ccc(Cn3cc(-c4ccccc4)cn3)nc2)o1 [Compound 4133, 2-(difluoromethyl)-5-(6-((4-phenyl-1H-pyrazol-1-yl)methyl)pyridin-3-yl)-1,3,4-oxadiazole] | – | – | – | > 50000 | 444 | 113
